# Assay results published in patent US6166072A, “Amino acid derivatives” (Allelix Neuroscience, Inc., priority 1999, dated 2000).
# Columns and labels:
# [1] = target: T1, human GlyT-2 (Homo sapiens, UniProt Q9Y345); assay: Glycine uptake by cells transiently transfected with human GlyT-2; format: cell-based; settings: GlyT-2 versus GlyT-1 transfected cells
# T1 construct: [3H]glycine uptake
# T1 sequence (Q9Y345 1-797): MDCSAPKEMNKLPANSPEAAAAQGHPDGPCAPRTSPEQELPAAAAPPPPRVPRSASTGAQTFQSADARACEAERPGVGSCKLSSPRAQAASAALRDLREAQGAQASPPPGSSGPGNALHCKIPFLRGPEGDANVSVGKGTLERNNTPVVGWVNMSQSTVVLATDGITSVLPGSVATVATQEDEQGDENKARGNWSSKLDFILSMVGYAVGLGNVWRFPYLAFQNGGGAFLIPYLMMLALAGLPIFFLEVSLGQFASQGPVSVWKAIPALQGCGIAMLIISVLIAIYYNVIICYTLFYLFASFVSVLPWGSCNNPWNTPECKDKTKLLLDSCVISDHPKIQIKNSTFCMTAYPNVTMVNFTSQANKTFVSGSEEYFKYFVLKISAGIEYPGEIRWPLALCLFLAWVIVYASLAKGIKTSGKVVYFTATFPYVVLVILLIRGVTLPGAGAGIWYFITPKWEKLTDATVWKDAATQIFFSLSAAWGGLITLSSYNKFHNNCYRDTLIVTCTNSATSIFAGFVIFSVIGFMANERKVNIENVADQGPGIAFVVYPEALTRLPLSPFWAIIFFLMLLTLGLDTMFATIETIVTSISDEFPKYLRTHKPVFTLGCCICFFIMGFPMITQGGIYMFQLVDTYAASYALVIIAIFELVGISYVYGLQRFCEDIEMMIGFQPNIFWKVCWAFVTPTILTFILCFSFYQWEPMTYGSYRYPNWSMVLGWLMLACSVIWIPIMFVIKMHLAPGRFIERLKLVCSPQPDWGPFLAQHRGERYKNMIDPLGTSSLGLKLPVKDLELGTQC
# Protocol: (§1) This example illustrates a method for the measurement of glycine uptake by transfected cultured cells.
# (§2) Cells transiently transfected with GlyT-1C (see Kim, et al., Molecular Pharmacology, 45, 1994:608-617) and human GlyT-2 (the homolog of the rat GlyT-2 described by Liu et al., J. Biological Chemistry, 268, 1993.22802-22808) were washed three times with HEPES buffered saline (HBS). The cells were then incubated 10 minutes at 37° C., after which a solution containing 50 nM [^3 H]glycine (17.5 Ci/mmol) and either (a) no potential competitor, (b) […] nonradioactive glycine or (c) a concentration of a candidate drug. A range of concentrations of the candidate drug was used to generate data for calculating the concentration resulting in 50% of the effect (e.g., the IC50 's which are the concentration of drug inhibiting glycine uptake by 50%). The cells were then incubated another 10 minutes at 37° C., after which the cells were aspirated and washed three times with ice-cold HBS. The cells were harvested, scintillant was added to the cells, the cells were shaken for 30 minutes, and the radioactivity in the cells was counted using a scintillation counter. Data were compared between the same cells contacted and not contacted by the candidate agent, and between cells having GlyT-1 activity versus cells having GlyT-2 activity, depending on the assay being conducted.
# [2] = target: T2, GlyT-1C (Homo sapiens, UniProt P48067); assay: Glycine uptake by cells transiently transfected with GlyT-1C; format: cell-based; settings: GlyT-1 and GlyT-2 transfected cells
# T2 construct: [3H]glycine uptake
# T2 sequence (P48067 1-706): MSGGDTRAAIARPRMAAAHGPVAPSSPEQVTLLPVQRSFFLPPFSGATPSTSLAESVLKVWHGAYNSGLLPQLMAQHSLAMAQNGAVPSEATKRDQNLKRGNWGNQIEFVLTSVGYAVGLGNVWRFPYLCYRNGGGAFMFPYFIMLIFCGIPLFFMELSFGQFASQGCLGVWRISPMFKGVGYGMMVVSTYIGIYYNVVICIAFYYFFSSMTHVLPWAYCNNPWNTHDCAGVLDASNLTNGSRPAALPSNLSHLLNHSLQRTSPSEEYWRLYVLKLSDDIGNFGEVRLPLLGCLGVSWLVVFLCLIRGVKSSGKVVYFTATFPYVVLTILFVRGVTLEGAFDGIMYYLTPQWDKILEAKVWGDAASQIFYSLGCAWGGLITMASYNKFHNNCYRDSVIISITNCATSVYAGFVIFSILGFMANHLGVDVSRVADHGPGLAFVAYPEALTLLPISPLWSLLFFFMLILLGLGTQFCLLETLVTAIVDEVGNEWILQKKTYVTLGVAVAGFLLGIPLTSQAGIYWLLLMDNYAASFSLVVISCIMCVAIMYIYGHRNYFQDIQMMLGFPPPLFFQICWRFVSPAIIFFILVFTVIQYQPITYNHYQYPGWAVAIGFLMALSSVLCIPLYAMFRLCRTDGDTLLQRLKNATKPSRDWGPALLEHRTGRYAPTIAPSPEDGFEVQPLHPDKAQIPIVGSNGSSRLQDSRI
# Protocol: as §1, §2
SMILES,selectivity for inhibition of glycine transport via GlyT-2 versus GlyT-1 [1],mixed GlyT-1/GlyT-2 activity [2]
"CCc1ccc(C(SCC(N)C(=O)O)c2ccc(F)cc2F)cc1CC (racemic) [S-(3,4-Diethyl-2',4'-difluorodiphenyl)methyl-D,L-cysteine]",selectivity for the inhibition of glycine transport via GlyT-2 versus GlyT-1,
"NC(CSC(c1ccc2c(c1)CCCC2)c1ccc(F)cc1F)C(=O)O (racemic) [S-[α-(5,6,7,8-Tetrahydronaphth-2-yl)-α-(2,4-difluorophenyl)]methyl-D,L-cysteine]",selectivity for the inhibition of glycine transport via GlyT-2 versus GlyT-1,
"CCCc1ccc(C(SCC(N)C(=O)O)c2ccc(F)cc2F)cc1 (racemic) [S-(2,4-Difluoro-4'-^npropyldiphenyl)methyl-D,L-cysteine]",,mixed GlyT-1/GlyT-2 activity
"CCc1ccc(C(SCC(N)C(=O)O)c2ccc([N+](=O)[O-])cc2)cc1CC (racemic) [S-(3,4-Diethyl-4'-nitrodiphenyl)methyl-D,L-cysteine]",selectivity for the inhibition of glycine transport via GlyT-2 versus GlyT-1,
"CC(C)(C)c1ccc(C(SCCC(N)C(=O)O)c2ccccc2)cc1 (racemic) [S-(4'-Butyidiphenyl)methyl-D,L-homocysteine]",,mixed GlyT-1/GlyT-2 activity
"CCc1ccc(C(SC(C)(C)C(N)C(=O)O)c2ccc(F)cc2)cc1CC (racemic) [S-(3,4-Diethyl-4-fluorodiphenyl)methyl-D,L-dimethylcysteine]",,mixed GlyT-1/GlyT-2 activity
"CCc1ccc(C(SC(C)(C)C(N)C(=O)O)c2ccccc2F)cc1CC (racemic) [S-(3,4-Diethyl-2'-fluorodiphenyl)methyl-D,L-dimethylcysteine]",selectivity for the inhibition of glycine transport via GlyT-2 versus GlyT-1,
"CCc1ccc(C(SCC(N)C(=O)O)c2cccc(C(F)(F)F)c2)cc1CC (racemic) [S-(3,4-Diethyl-3'-trifluoromethyidiphenyl)methyl-D,L-cysteine]",,mixed GlyT-1/GlyT-2 activity
"Cc1ccc(C(SCC(N)C(=O)O)c2ccc(C)s2)s1 (racemic) [S-[α,α-Bis(5-methyl-2-thienyl)]methyl-D,L-cysteine]",selectivity for the inhibition of glycine transport via GlyT-2 versus GlyT-1,
"NC(CSC(c1ccc(F)cc1)c1ccccc1-c1ccccc1)C(=O)O (racemic) [S-(4-Fluoro-2'-phenyldiphenyl)methyl-D,L-cysteine]",selectivity for the inhibition of glycine transport via GlyT-2 versus GlyT-1,
"CCc1ccc(C(SCC(N)C(=O)O)c2cccc(F)c2)cc1CC (racemic) [S-(3,4-Diethyl-3'-fluorodiphenyl)methyl-D,L-cysteine]",,mixed GlyT-1/GlyT-2 activity
"Cc1ccc(C(SCC(N)C(=O)O)c2ccc(C)cc2)cc1 (racemic) [S-(4,4'-Dimethyldiphenyl)methyl-D,L-cysteine]",selectivity for the inhibition of glycine transport via GlyT-2 versus GlyT-1,
